Measured values as given in patent publication US20230202997A1, “CHROMANOL, QUINONE OR HYDROQUINONE COMPOUNDS FOR TREATMENT OF SEPSIS” (Sulfateq B.V., priority 2020, published 2023).

Legend:
TNFα mRNA expression [1] = test: Inhibition of LPS-induced TNFα mRNA expression in HUVEC; assay type: cell-based, Human; settings: 10 μM for 30 min, then LPS 24 hours
Method: (§1) Human Umbilical Cord Endothelial Cells (HUVEC, Lonza CC-2519) were maintained on 1% gelatin-coated culture flasks in RPMI1640 medium containing 20% fetal bovine serum, 2 mM Glutamine (Sigma-Aldrich), 1% Penicillin-Streptomycin solution (Sigma-Aldrich) and 50 μg/ml Bovine Pituitary Extract (Invitrogen). HUVEC were passaged by trypsinization when the cultures reach a confluency of 70%. For all experiments, HUVEC were seeded at 0.6·10^5 cells/cm^2 and allowed to adhere for 24 hours.
(§2) HUVEC and NRK52E cells were pre-incubated with SUL compounds (10 μM) for 30 min and subsequently exposed to LPS for 24 hours under standard culture conditions. Cells were lysed in triZOL reagens (Invitrogen) and total RNA isolated according to manufacturers' instruction. 1 μg total RNA per sample was reverse transcribed using the FirstAid Reverse Transcription Kit (ThermoFisher). Copy-DNA equivalents of 5 ng total RNA were amplified on a ViiA7 Real-time PCR system (ThermoFisher, Waltham, Mass.) using iTaq Universal SYBR Green Supermix (Bio-Rad, Hercules, Calif.) and primers specific for tumor necrosis factor alpha, interleukin 1 beta, interleukin-6 and beta actin as loading control. Amplification was performed for 40 cycles of 95° C. for 30 s, 60° C. for 1 min. Relative mRNA expression was calculated as 2^−(Cq^gene^−Cq^reference^) and normalized to unstimulated control cells (100% inhibition) and vehicle-treated and LPS exposed cells (0% inhibition). The following primers were used: […]

TNFα mRNA expression [2] = test: Inhibition of LPS-induced TNFα mRNA expression in NRK52E; assay type: cell-based, Rat; settings: 10 μM for 30 min, then LPS 24 hours
Method: (§3) Rat kidney epithelial cells (ATCC #CRL-1571) were maintained in DMEM medium containing 10% fetal bovine serum, and 1% Penicillin-Streptomycin solution (Sigma-Aldrich). NRK52E cells were passaged by trypsinization when the cultures reached a confluency of 70%. For all experiments, NRK52E cells were seeded at 0.6·10^5 cells/cm^2 and allowed to adhere for 24 hours.
as §2

IL-1β mRNA expression [3] = test: Inhibition of LPS-induced IL-1β mRNA expression in HUVEC; assay type: cell-based, Human; settings: 10 μM for 30 min, then LPS 24 hours
Method: as §1, §2

[4] = system: sepsis induction in Drosophila melanogaster (Staphylococcus aureus); test: S. aureus sepsis in flies, survival and negative geotaxis; assay type: in vivo; settings: flies with S. aureus sepsis
Method: W1118 flies were bred and housed at 25° C. with a 12 h:12 h light/dark-cycle. Flies were kept in vials containing approximately 5 mL of standard yeast-cornmeal medium. Flies kept as a stock were flipped to fresh vials weekly. The used yeast-cornmeal medium was prepared to the instructions of Stocker and Gallant's ‘Drosophila Methods and Protocols’ and consisted of 100 grams yeast, 75 grams glucose, 8 grams agar, 55 grams cornmeal, and 10 grams wheat flour per litre of water. After boiling, phosphoric acid and propionic acid were added to the mixture to prevent fungal growth.
Staphylococcus aureus (S. aureus) was aerobically cultured overnight in 2.5% tryptic soy broth (TSB) at 37° C. with continuous rotation (200 rounds per minute), from an S. aureus glycerol stock kept at −80° C. For each experiment, a fresh culture was prepared one day prior to the experiment. For bacterial infection, optical density (OD) was measured the following day at 600 nm. Clean TSB was used as OD=0.00 and the bacterial culture was diluted to OD=2.20 with PBS. Next, 1.0 mL of the bacterial culture (OD=2.20) was centrifuged at 14,000 g for 1 minute, the supernatant was discarded, and the bacterial pellet resuspended in 1.0 mL PBS. Serial dilutions (5× and 25× diluted in PBS with optical densities of approximately 1.05 and 0.25, respectively) were used in the appropriate experiments. […]

IL-6 mRNA expression [5] = test: Inhibition of LPS-induced IL-6 mRNA expression in HUVEC; assay type: cell-based, Human; settings: 10 μM for 30 min, then LPS 24 hours
Method: as §1, §2

IL-6 mRNA expression [6] = test: Inhibition of LPS-induced IL-6 mRNA expression in NRK52E; assay type: cell-based, Rat; settings: 10 μM for 30 min, then LPS 24 hours
Method: as §3, §2

IL-1β mRNA expression [7] = test: Endothelial inflammatory activation after endotoxin, IL-1β mRNA (Example 5); assay type: cell-based, Human; settings: HUVEC; 10 μM for 30 min
Method: as §1
(§4) HUVEC cells were lysed in triZOL reagens (Invitrogen) and total RNA isolated according to manufacturers' instruction. 1 μg total RNA per sample was reverse transcribed using the FirstAid Reverse Transcription Kit (ThermoFisher). Copy-DNA equivalents of 5 ng total RNA were amplified on a ViiA7 Real-time PCR system (ThermoFisher, Waltham, Mass.) using iTaq Universal SYBR Green Supermix (Bio-Rad, Hercules, Calif.) and primers specific for tumor necrosis factor alpha (TNFα; sense 5′-[…]-3′, antisense 5′-[…]-3′), interleukin 1 beta (IL-1β; sense 5′-[…]-3′, antisense 5′-[…]-3′), interleukin-6 (IL-6; sense 5′-[…]-3′, antisense 5′-[…]-3′) and beta actin (ACTB; sense 5′-[…]-3′, antisense 5′-[…]-3′) as loading control. Amplification was performed for 40 cycles of 95° C. for 30 s, 60° C. for 1 min. Relative mRNA expression was calculated according to the δδCt-method.

NO production in HUVEC = test: Endothelial NO production (nitrate in conditioned medium), basal and after LPS; assay type: cell-based, Human; settings: 10 μM pre-treatment, LPS 100 ng/ml for 24 hours
Method: as §1
Cellular production of NO was approximated by measuring nitrate concentrations in culture media using the Measure-IT™ High-Sensitivity Nitrite Assay Kit (#M36051, ThermoFisher) according to manufacturer's instructions. […] Therefore, nitrate concentrations in conditioned media are a good approximate to assess cellular NO production. 50 μl conditioned medium derived from a single 96-wells plate well was used per assay and normalized against protein concentration. All experiments were performed in quadruplicate.
Endotoxins suppress endothelial NO production by limiting the activity of eNOS. HUVEC were pre-treated with vehicle (DMSO), BN-80933, SUL-138, or SUL-150 or (all 10 μM) prior to endotoxin (LPS 100 ng/ml) exposure for 24 hours. The nitrate levels in the conditioned medium from endothelial cells exposed to LPS averaged at 160 pmol/mg protein (˜33% reduction versus non LPS exposed HUVEC, p=0.002), which was lower than basal control levels. BN-80933 further suppressed the nitrate levels in the conditioned medium (FIG. 7A) to an average of 90 pmol/mg protein (p=0.008).

[8] = system: cytoplasmic oxidative stress in HUVEC; test: LPS-induced cellular superoxide in HUVEC (DHE); assay type: cell-based, Human; settings: 10 μM for 30 min, LPS 100 ng/ml 24 hours
Method: as §1
(§5) The production of cellular and mitochondrial oxidative stress was measured using fluorescent probes for cellular and mitochondrial superoxide, i.e. dihydroethidium (DHE) and MitoSox (ThermoFisher), respectively. HUVEC were incubated with BN-80933, SUL-138 or SUL-150 (all 10 μM) for 30 min. Next, HUVEC were exposed to LPS (100 ng/ml) for an additional 24 hours. In the final hour of incubation, 2.5 μM of DHE or MitoSox was applied to each sample. HUVEC were washed in PBS and fixed in 4% paraformaldehyde at room temperature for 15 min. Nuclear staining was performed by 5 μM […] (DAPI) and fluorescence intensity of the samples was recorded in a CLARIOStar Plus plate reader (BMG Labtech) equipped with the appropriate filter sets. Fluorescence recordings for DHE and MitoSox were corrected for DAPI fluorescence. All experiments were performed in quadruplicate.

[9] = system: NO production in RAW264.7 macrophages; test: Macrophage NO production (nitrate in conditioned medium), basal and after LPS; assay type: cell-based, Mouse
Method: Mouse macrophage RAW264.7 cells (ATCC #TIB-71) were maintained in DMEM medium containing 10% fetal bovine serum, and 1% Penicillin-Streptomycin solution (Sigma-Aldrich). […] For all experiments, RAW264.7 cells were seeded at 0.5·10^5 cells/cm^2 and allowed to adhere for 24 hours. Cellular production of NO was approximated by measuring nitrate concentrations in culture media using the Measure-IT™ High-Sensitivity Nitrite Assay Kit (#M36051, ThermoFisher) according to manufacturer's instructions. […] Therefore, nitrate concentrations in conditioned media are a good approximate to assess cellular NO production. 50 μl conditioned medium derived from a single 96-wells plate well was used per assay and normalized against protein concentration. All experiments were performed in quadruplicate. LPS induces macrophage NO production by activating iNOS. RAW264.7 macrophages were pre-treated with vehicle (DMSO), BN-80933, SUL-138, or SUL-150 or (all 10 μM) prior to endotoxin (LPS 100 ng/ml) exposure for 24 hours. The nitrate levels in the conditioned medium from LPS exposed RAW264.7 macrophages averaged at 83 pmol/mg protein (˜16-fold increase versus non-exposed RAW264.7 cells, p=0.001).

TNFα mRNA expression [10] = test: Endothelial inflammatory activation after endotoxin, TNFα mRNA (Example 5); assay type: cell-based, Human; settings: HUVEC; 10 μM for 30 min
Method: as §1, §4

[11] = system: mitochondrial oxidative stress in HUVEC; test: LPS-induced mitochondrial superoxide in HUVEC (MitoSox); assay type: cell-based, Human; settings: 10 μM for 30 min, LPS 100 ng/ml 24 hours
Method: as §1, §5

IL-6 mRNA expression [12] = test: Endothelial inflammatory activation after endotoxin, IL-6 mRNA (Example 5); assay type: cell-based, Human; settings: HUVEC; 10 μM for 30 min
Method: as §1, §4

HUVEC = test: Cell viability after hypothermia-rewarming stress (Neutral Red); assay type: cell-based, Human; settings: 10 μM for 1 hour, 4° C. for 24 hours followed by 37° C. for 3 hours
Method: as §1
HUVEC were pre-treated with BN-80933, SUL-138 or SUL-150 (all 10 μM) for 1 hour in a humidified incubator at 37° C. Following pre-treatment, HUVEC were placed in a cold room (2-8° C.) for 24 hours and subsequently placed back at 37° C. for a 3 hour rewarming period. After 1 hour of rewarming, cell culture medium was replaced by prewarmed and filtered 0.4 mg/mL Neutral Red (#N463 8, Sigma-Aldrich) in culture medium. After the remaining 2 hour rewarming period, HUVEC were washed with PBS and NRU was solubilized in 100 μL resorption solution (50% ethanol, 1% ascetic acid in dH2O). The absorbance was measured at a wavelength of 550 nm on a BioTek ELx808 plate reader. The recorded OD550 nm values were normalized to control samples that were maintained at 37° C. at all times, which were assumed to be 100% viable.

Which results are given for Cc1c(C)c2c(c(C)c1O)CC[C@@](C)(C(=O)N1CCNCC1)O2 [SUL-151, (S)-(6-hydroxy-2,5,7,8-tetramethylchroman-2-yl)(piperazin-1-yl)methanone]?
inhibition of LPS-induced mRNA expression of TNFα (TNFα mRNA expression [1]): 72.5 ± 3.2 %; inhibition of LPS-induced mRNA expression of TNFα (TNFα mRNA expression [2]): 72.1 ± 14.5 %; inhibition of LPS-induced mRNA expression of IL-1β (IL-1β mRNA expression [3]): 76.7 ± 1.2 %; Geotaxis ([4]; 3 mM SUL-151, 24 hr and 48 hr after induction): improved both at 24 hr and 48 hr; Survival after 24 hr ([4]; 3 mM SUL-151 intrathoracic injection with the bacteria): 80%; inhibition of LPS-induced mRNA expression of IL-6 (IL-6 mRNA expression [5]): 65.4 ± 4.6 %; inhibition of LPS-induced mRNA expression of IL-6 (IL-6 mRNA expression [6]): 83.1 ± 8.3 %

Which “LPS-induced mRNA expression of IL-1β” value (IL-1β mRNA expression [7]) does the source give for Cc1c(C)c2c(c(C)c1O)CC[C@](C)(C(=O)N1CCNCC1)O2 [SUL-150, (R)-(6-hydroxy-2,5,7,8-tetramethylchroman-2-yl)(piperazin-1-yl)methanone] here?
The value was “precluded the LPS-induced increase in IL-1β and IL-6”.

What about the “inhibition of LPS-induced mRNA expression of TNFα” value (TNFα mRNA expression [1]) of the same molecule?
The value was 79.8 ± 4.1 %.

And the “nitrate levels in the conditioned medium after LPS” value (NO production in HUVEC)?
Its value is “mitigated the LPS-induced reduction in nitrate levels and their levels did not change from basal nitrate level”.

And the “LPS-induced cytoplasmic oxidative stress (DHE)” value [8]?
The value was “mitigates the induction of cytoplasmic oxidative stress”.

What about the “LPS-induced increase in extracellular nitrate level” value ([9]; 10 μM pre-treatment, LPS 100 ng/ml for 24 hours) of the same molecule?
The value was “Neither SUL-138 nor SUL-150 strongly suppressed the LPS-induced increase in nitrate production”.

What about the “basal production of extracellular nitrate” value ([9]; no LPS, 10 μM) of the same molecule?
Its value is “Neither BN-80933, SUL-138, nor SUL-150 affected the basal production of extracellular nitrate”.

And the “inhibition of LPS-induced mRNA expression of IL-1β” value (IL-1β mRNA expression [3])?
The value was 78.9 ± 6.0 %.

What about the “LPS-induced mRNA expression of TNFα” value (TNFα mRNA expression [10]) of the same molecule?
The value was “precludes the induction of mRNA expression of the pro-inflammatory cytokine TNFα”.

What about the “inhibition of LPS-induced mRNA expression of IL-6” value (IL-6 mRNA expression [5]) of the same molecule?
The value was 69.3 ± 3.9 %.

And the “LPS-induced mitochondrial oxidative stress (MitoSox)” value [11]?
Its value is “precluded the LPS-induced increase in mitochondrial oxidative stress”.

What about the “LPS-induced mRNA expression of IL-6” value (IL-6 mRNA expression [12]) of the same molecule?
Its value is “precluded the LPS-induced increase in IL-1β and IL-6”.

And the “reduction in cell viability versus normothermic control cells” value (HUVEC)?
Its value is about 15%.
